Key:
[1] = target: T1, R98H mutant of alpha-sarcoglycan (Homo sapiens, UniProt Q16586, R98H); assay: Western blot rescue of R98H mutant of alpha-sarcoglycan in HEK293 cell model; assay type: cell-based; details: HEK293, 24 hours; for alpha-sarcoglycan protein level (western blot, densitometry), rescue of R98H mutant: A 2 μM
T1 construct: expressed in transfected cells; host or cells: HEK293
T1 sequence (Q16586 24-387 R98H): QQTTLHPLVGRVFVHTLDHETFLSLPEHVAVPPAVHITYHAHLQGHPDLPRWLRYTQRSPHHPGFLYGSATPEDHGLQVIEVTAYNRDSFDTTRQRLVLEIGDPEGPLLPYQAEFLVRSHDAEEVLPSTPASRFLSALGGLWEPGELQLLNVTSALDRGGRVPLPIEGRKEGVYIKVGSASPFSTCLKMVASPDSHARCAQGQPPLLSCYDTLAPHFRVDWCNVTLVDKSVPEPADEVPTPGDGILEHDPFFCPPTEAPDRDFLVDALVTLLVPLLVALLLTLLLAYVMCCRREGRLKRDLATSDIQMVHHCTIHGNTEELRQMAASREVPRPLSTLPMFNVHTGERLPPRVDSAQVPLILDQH
Experimental: HEK293 cells expressing different α-SG mutants have been treated with the Compounds A, B, C, D, E, F, H, I, Q, R, S and T according to protocols developed in CF studies [Loo and Clarke 2011; Becq et al 2011, Pedemonte et al 2005; Wang et al 2006]. Concentration and time-dependent recovery of treated mutants have been evaluated by Western blotting. The proteasome inhibitor MG132, at the concentration of 10 μM, or DMSO at 1‰ concentration, have been used as positive and negative control, respectively.
In FIG. 1 the result obtained by treating cells expressing the R98H mutant of α-SG for 24 hours with Compound C 5 μM, Compound B 10 μM, Compound E 10 μM, Compound F 10 μM, Compound A 2 μM, Compound D 10 μM are shown. At the end of treatments, cells were lysed and total proteins resolved by SDS-PAGE. Western blotting has been performed by using α-SG specific antibody and β-actin specific antibody, used to normalize loaded proteins (in FIG. 1, upper panel, a representative experiment is shown). The expression of α-SG in different samples has been determined by densitometric analysis of the western blotting experiments and indicated as percentage of the protein present in cells expressing the R98H mutant treated with DMSO (negative control).
In FIG. 4 the result obtained by treating cells expressing the R98H mutant of α-SG for 24 hours with either Compound H 15 μM, Compound I 10 μM, Compound T 15 μM, Compound A 2 μM, or DMSO at 1‰ concentration, used as negative control, are shown. Cells expressing the wild type form of α-sarcoglycan have been used for comparison. At the end of treatments, cells were lysed and total proteins resolved by SDS-PAGE. Western blotting has been performed by using α-SG specific antibody and β-actin specific antibody, used to normalize loaded proteins (in upper panel of FIG. 4, a representative experiment is shown). The expression of α-SG in different samples has been determined by densitometric analysis of the western blotting experiments and indicated as percentage of the protein present in cells expressing the wild type form of α-sarcoglycan. […] The compounds tested induced the recovery of the R98H mutant to levels that in some cases were even greater than those present in HEK cells expressing the wild type protein.
(§1) In FIG. 5 the result obtained by treating cells expressing the R98H mutant of α-SG for 24 hours with either increasing concentration of Compound R (1, 2.5, 5 μM) or DMSO at 1‰ concentration, used as negative control, are shown. Cells expressing the wild type form of α-sarcoglycan have been used for comparison. At the end of treatments, cells were lysed and total proteins resolved by SDS-PAGE. Western blotting has been performed by using α-SG specific antibody and β-actin specific antibody, used to normalize loaded proteins (in upper panel of FIG. 5, a representative experiment is shown). The expression of α-SG in different samples has been determined by densitometric analysis of western blotting experiments and indicated as percentage of the protein present in cells expressing the wild type form of α-sarcoglycan.
as §1, with “6” for “5”, “Q (5, 10 μM), increasing concentration of Compound S (10, 15” for “R (1, 2.5, 5”, “1% o” for “1‰”, “6,” for “5,”

[2] = target: T1, R98H mutant of alpha-sarcoglycan; assay: Confocal immunofluorescence, membrane localization of R98H alpha-sarcoglycan in HEK293 cells; assay type: cell-based; details: HEK293, 24 hours
Experimental: The cellular localization of either the V247M or R98H mutants, upon corrector treatments, has been verified by confocal immunofluorescence.
(§2) In the experiment reported in FIG. 8, HEK 293 cells expressing the R98H mutant have been treated for 24 hours with either Compound H (15 μM), Compound I (10 μM), Compound Q (10 μM), Compound A (2 μM) or the vehicle DMSO at 1% o concentration used as negative control. By comparison, cells expressing the wild type form of α-sarcoglycan have also been used. At the end of treatments, not permeabilized cells were incubated with a monoclonal antibody specific for an extracellular epitope of α-sarcoglycan in order to mark only the membrane resident α-sarcoglycan.
as §2, with “9,” for “8,”, “either two different concentration of” for “either”, “R (2.5 and 5” for “H (15”, “μM),” for “μM), Compound I (10 μM), Compound Q (10 μM), Compound A (2 μM)”, “1‰” for “1% o”

[3] = FIG. 4, H 15 μM, I 10 μM, T 15 μM, relative to cells expressing wild type
[4] = FIG. 8, H 15 μM, I 10 μM, Q 10 μM, A 2 μM
[5] = FIG. 6, Compound Q 5, 10 μM, Compound S 10, 15 μM
[6] = FIG. 6, highest concentrations (Q 10 μM, S 15 μM)
[7] = FIG. 1, C 5 μM, B 10 μM, E 10 μM, F 10 μM, D 10 μM, relative to R98H cells treated with DMSO

Compound | alpha-sarcoglycan protein level (western blot, densitometry), rescue of R98H mutant [1, 3] | alpha-sarcoglycan protein level (western blot, densitometry), rescue of R98H mutant [1, 7] | plasma membrane localization of R98H alpha-sarcoglycan mutant [2, 4] | other results
COc1ccccc1Nc1nc(-c2sc(NC(=O)c3ccccc3)nc2C)cs1 [Compound R, N-(2-(2-methoxyphenylamino)-4′-methyl-4,5′-bithiazol-2′-yl)-benzamide] | – | – | – | alpha-sarcoglycan protein level, dose dependence of R98H mutant recovery ([1]; FIG. 5, Compound R 1, 2.5, 5 μM): dose dependent recovery; alpha-sarcoglycan protein level of R98H mutant versus wild type protein ([1]; FIG. 5, highest concentration (5 μM)): reached the level of the wild type protein; plasma membrane localization of R98H alpha-sarcoglycan mutant ([2]; FIG. 9, Compound R 2.5 and 5 μM): promoted the correct plasma-membrane localization
C=Cc1ccc(-c2csc(Nc3ccccc3)n2)cc1 [Compound S, N-phenyl-4-(4-vinylphenyl)thiazol-2-amine] | – | – | – | alpha-sarcoglycan protein level, dose dependence of R98H mutant recovery [1, 5]: dose dependent recovery; alpha-sarcoglycan protein level of R98H mutant versus wild type protein [1, 6]: reached the level of the wild type protein
CC(=O)c1cccc(Nc2nc(-c3sc(NC(=O)c4ccccc4)nc3C)cs2)c1 [Compound Q, N-(2-(3-acetylphenylamino)-4′-methyl-4,5′-bithiazol-2′-yl)-benzamide] | – | – | promote the correct membrane localization | alpha-sarcoglycan protein level, dose dependence of R98H mutant recovery [1, 5]: dose dependent recovery; alpha-sarcoglycan protein level of R98H mutant versus wild type protein [1, 6]: reached the level of the wild type protein
O=S(=O)(c1ccc(Cl)cc1)N1CCN(c2ccnc3cc(Cl)ccc23)CC1 [Compound F, 7-chloro-4-(4-(4-chlorophenylsulfonyl)piperazin-1-yl)quinoline] | – | promote the rescue | – | –
COc1ccc(Cl)cc1Nc1nc(-c2sc(NC(=O)c3ccccc3)nc2C)cs1 [Compound E, N-[2-(5-Chloro-2-methoxy-phenylamino)-4′-methyl-[4,5′]bithiazolyl-2′-yl]-benzamide] | – | promote the rescue | – | –
COc1ccc(Cl)cc1Nc1nc(-c2sc(NC(=O)C(C)(C)C)nc2C)cs1 [Compound A, N-(2-(5-chloro-2-methoxyphenylamino)-4′-methyl-4,5′-bithiazol-2′-yl)pivalamide] | promote the rescue | promote the rescue | promote the correct membrane localization | –

The next lines start with results.

alpha-sarcoglycan protein level (western blot, densitometry), rescue of R98H mutant [1, 3] | alpha-sarcoglycan protein level (western blot, densitometry), rescue of R98H mutant [1, 7] | Compound | plasma membrane localization of R98H alpha-sarcoglycan mutant [2, 4] | other results
promote the rescue | – | Cc1cc(C)c2c(C)cc(Nc3ccccc3)nc2c1 [Compound H, 4,5,7-trimethyl-N-phenylquinolin-2-amine] | promote the correct membrane localization | –
promote the rescue | – | COc1ccc2nc(Nc3nc(=O)c(C)c(C)[nH]3)nc(C)c2c1 [Compound T, 2-(6-methoxy-4-methylquinazolin-2-ylamino)-5,6-dimethylpyrimidin-4(1H)-one] | – | –
promote the rescue | – | Cc1cc(Nc2ccc(Br)cc2)nc2ccccc12 [Compound I, N-(4-bromophenyl)-4-methylquinolin-2-amine] | promote the correct membrane localization | –

From patent US9987256B2, “CFTR corrector for the treatment of genetic disorders affecting striated muscle” (UNIVERSITA' DEGLI STUDI DI PADOVA, priority 2012, dated 2018)
